Patent US7579462B2, “Process for preparing 17-allyl amino geldanamycin (17-aag) and other ansamycins” (Conforma Therapeutics Corporation, priority 2001, dated 2009)

Experiment: Relative solubility of 17-AAG polymorphs in solvents and oils
Type: physicochemical
Details: lower melting point form (about 147-153° C.) compared with higher melting point form (about 200-212° C.) of 17-AAG; at room temperature
Text: Indeed, one aspect of the invention is the ability to form and exploit different polymorphic structures. […] The water may be premixed with the ethanol or later added to the ethanol solution already containing 17-AAG dissolved therein. […] Depending on the end-goal, one may readily convert one form to another simply by dissolving and crystallizing in the appropriate solvent.

C=CCNC1=C2C[C@@H](C)C[C@H](OC)[C@H](O)[C@@H](C)/C=C(\C)[C@H](OC(N)=O)[C@@H](OC)/C=C\C=C(/C)C(=O)NC(=CC1=O)C2=O [17-AAG, 17-allylamino-geldanamycin]
solubility in a variety of solvents and oils: more readily soluble
